Values quoted from earlier work, collected in patent publication US20080070828A1, “Ace-Inhibitory Whey Hydrolysates” (FRIESLAND BRANDS B.V., priority 2004, published 2008).

Assays:
ACE = settings: for Literature IC50 / IC50: ACE-inhibitory peptides from BLG; for IC50: read-out: Literature IC50
hypertensive rats = settings: among 9 identified peptide sequences

Substance | Literature IC50 (ACE) | IC50 (ACE) | antihypertensive activity (hypertensive rats) | IC50 reported in WO 01/85984 (ACE; single hydrolysis step with trypsin or bacterial protease, f142-148 as reference)
Ile-Pro-Ala [f(78-80), BLG tripeptide] | 42 µg/mL | 141 µM | strongest antihypertensive activity | –
f(9-14): ACE-inhibitory peptide from BLG (GLDIQK; UniProt P02754 25-30, looked up, fragment) | 390 µg/mL | 580 µM | – | –
f(15-20): ACE-inhibitory peptide from BLG (VAGTWY; UniProt P02754 31-36, looked up, fragment) | 1170 µg/mL | 1680 µM | – | –
f(22-25): ACE-inhibitory peptide from BLG (LAMA; UniProt P02754 38-41, looked up, fragment) | 430 µg/mL | 1060 µM | – | –
f(32-40): ACE-inhibitory peptide from BLG (LDAQSAPLR; UniProt P02754 48-56, looked up, fragment) | 616 µg/mL | 635 µM | – | –
f(81-83): ACE-inhibitory peptide from BLG (VFK; UniProt P02754 97-99, looked up, fragment) | 404 µg/mL | 1030 µM | – | –
f(94-100): ACE-inhibitory peptide from BLG (VLDTDYK; UniProt P02754 110-116, looked up, fragment) | 807 µg/mL | 946 µM | – | –
f(102-105): ACE-inhibitory peptide from BLG (YLLF; UniProt P02754 118-121, looked up, fragment) | 95 µg/mL | 172 µM | – | –
f(106-111): ACE-inhibitory peptide from BLG (CMENSA; UniProt P02754 122-127, looked up, fragment) | 515 µg/mL | 788 µM | – | –
f(142-146): ACE-inhibitory peptide from BLG (ALPMH; UniProt P02754 158-162, looked up, fragment) | 296 µg/mL | 521 µM | – | –
f(142-148): peptide isolated from a trypsin hydrolysate of bovine BLG (ALPMHIR; UniProt P02754 158-164, looked up, fragment) | – | 43 µM | – | 40 µg/mL
f(146-149): ACE-inhibitory peptide from BLG (HIRL; UniProt P02754 162-165, looked up, fragment) | 620 µg/mL | 1150 µM | – | –
